Tested on: SCARB-1 gene
Details: gonadectomized male mice, short-term treatment; effect not visible at 18, 24, 48 and 96 hours
Method: The expression of the genes was analyzed on an Affymetrix station (microfluidic model; hybridization oven; scanner; computer) following the protocols provided by the company. Briefly, the total RNA isolated from the tissues is transcribed to cDNA. From the double-stranded cDNA, a cRNA labeled with biotin is synthesized using T7 polymerase and a precursor NTP conjugated to biotin. The cRNAs are then fragmented to small sized fragments. All the molecular biology steps are checked using the Agilent “Lab on a chip” system in order to confirm the good efficiencies of the enzymatic reactions. The Affymetrix chip is hybridized with the biotinylated cRNA, rinsed and then fluorescence labeled using a fluorophore conjugated to streptavidin. After washings, the chip is scanned and the results are calculated using the MAS5 software provided by Affymetrix. An expression value is obtained for each gene as well as the indication of the significance of the value obtained.
B. Male mice were gonadectomized and treated with the vehicle or DHT. A kinetic study of the expression of the gene from 15 minutes to 96 hours was carried out. For this, the preputial glands were removed for a period ranging up to 4 days (androgenic treatment alone observation of a short-term kinetics), the RNA was isolated and the expression of the genes was analyzed by the Affymetrix technique (FIG. 2).

C[C@]12CCC(=O)C[C@@H]1CC[C@@H]1[C@@H]2CC[C@]2(C)[C@@H](O)CC[C@@H]12 [DHT, Dihydrotestosterone]
mRNA for SCARB-1 in the mouse preputial gland: not induced

Source: patent US20090246776A1, “Modulators of scarb-1 for treating acne or hyperseborrhea” (GALDERMA RESEARCH & DEVELOPMENT, priority 2006, published 2009)
